# Measurements as given in patent US20230287083A1, “CD1 PEPTIDE-EPITOPE FOR USE IN THE TREATMENT OF A DISEASE CAUSED BY AN INT[…]” (priority 2020, published 2023).
# Residues, ends and D or L forms follow the SMILES beside them.
# Legend:
# Coxsackie B4-V = Coxsackie B4-V infection, pancreas cellular infiltration / pancreatitis; format: in vivo, BALB/c mice
# Procedure: BALB/c mice are immunized by footpath injection of 100 μg of peptide of SEQ ID NO:2 emulsified in Freund's adjuvant, on 2 occasions at a 2-weeks interval. A control group is injected with the adjuvant alone.
# All mice are then immunized with the full polyprotein adsorbed on alum, using 100 μg per injection, for a total of 4 injections administered at an interval of 2 weeks.
# Three weeks after the last injection, all mice are infected with 50 PFU of the B4-V strains in peritoneum.
# Within 3 days after infection, the pancreas of 50% of the mice is isolated and examined for cellular infiltration. All mice in the control group show massive infiltration by mononuclear cells in the acini.
# NS5 [1] = assay: Same NS5 experiment repeated in BALB/c mice; format: in vivo
# NS5 [2] = assay: NS5-specific activation of splenic CD3+ lymphocytes (3H-thymidine incorporation) after peptide pre-injection and NS5 vaccination; format: in vivo, C57BL/6 mice
# Procedure: (§1) Peptide of SEQ ID NO:1 is emulsified in complete Freund's adjuvant and injected subcutaneously at a dose of 100 μg in a series of C57BL/6 mice, followed after 2 weeks by the same injection in incomplete Freund's adjuvant. A control group is injected according to the same schedule with adjuvant alone.
# (§2) Two weeks after the last injection both groups of mice are treated by a subcutaneous injection of NS5 protein in alum, repeated every 2 weeks four times.
# (§3) The spleen of all mice is obtained one month after the last injection and the population of CD3+ lymphocytes isolated by FACS sorting.
# Cells are then maintained in culture in the presence of antigen-presenting cells loaded with NS5 and the proportion of activated cells numbered after 6 days by incorporation of 3H-thymidine.
# NS5 [3] = assay: Detection of NS5-specific NKT cells (PLZF staining) with JAWS2 presenting cells; format: in vivo, C57BL/6 mice; conditions: CD3+ cells incubated with JAWS2 presenting cells
# Procedure: as §1, §2, §3
# In parallel experiments CD3+ cells are incubated with JAWS2 as presenting cells.
# SARS-CoV-2 S protein [4] = assay: Splenocyte immune response towards S protein after peptide pretreatment and S protein immunization; format: in vivo, C57BL/6 mice
# Procedure: (§4) Peptide of SEQ ID NO:3 is used to immunize C57BL/6 mice at a dose of 100 μg emulsified in complete Freund's adjuvant, followed by a second injection of 100 μg in incomplete Freund's adjuvant 3 weeks later. A control group receives only the adjuvant.
# (§5) Both groups of mice are then immunized with 100 μg of S protein in alum, administered at 2-week intervals, starting 3 weeks after injection of peptide of SEQ ID NO:3 (or adjuvant), for a total of 4 injections at 2 weeks interval.
# (§6) The immune response towards S protein is then evaluated on splenocytes retrieved either 2 or 6 months after the last injection and titers of specific antibodies are evaluated on serum.
# SARS-CoV-2 S protein [5] = assay: Specific anti-S protein antibody titers and isotypes in serum; format: in vivo, C57BL/6 mice; conditions: for specific anti-S protein antibody titers: vs control
# Procedure: as §4, §5, §6
# HSV = assay: Cellular immune response towards live-attenuated HSV vaccine after peptide pre-immunization; format: in vivo, BALB/c mice; conditions: one month after last injection
# Procedure: BALB/c mice are immunized in footpath with 100 μg of peptide of SEQ ID NO:5 emulsified in complete Freund's adjuvant, and this injection is repeated once after an interval of 2 weeks, the second injection being made in incomplete Freund's adjuvant. A control group of BALB/c mice is treated with adjuvant alone.
# All mice then receive a commercial preparation of live-attenuated HSV on 2 occasions separated by one month.
# One month after the last injection, the immune response towards the vaccine is compared between the 2 groups.
# [6] = system: hemagglutinin from influenza A virus; design: species or system C57BL/6 mice; conditions: mouse, in vivo
# [7] = system: hemagglutinin from influenza A virus; design: species or system C57BL/6 mice; conditions: mouse, in vivo; remark: listed apart in the source
# [8] = system: hemagglutinin from influenza A virus; design: species or system C57BL/6 mice; conditions: mouse, in vivo; remark: listed apart in the source
# [9] = C57BL/6, vs adjuvant-only control
compound,measurement,setting,value
EK-FRDIRGF-LA [peptide of SEQ ID NO:2],pancreatitis signs,"Coxsackie B4-V; day 10 after infection, control: persisting infiltration, disappearance of acini structure",complete resolution of pancreatitis signs
same,pancreas cellular infiltration by mononuclear cells in the acini,"Coxsackie B4-V; within 3 days after infection with 50 PFU B4-V, control: massive infiltration",moderate infiltration
AG-HGQVDNF-SL [peptide of SEQ ID NO:1],result of the same experiment in BALB/c mice,NS5 [1],essentially the same results
same,total number of NS5-specific cells,"NS5 [2]; C57BL/6, 100 μg peptide s.c. in CFA then IFA before NS5 in alum, vs adjuvant-only control",significantly higher
same,number of NS5-specific CD4 cells,NS5 [2]; [9],higher number is observed
same,number of NS5-specific CD8 cells,NS5 [2]; [9],highly significant
same,"variation in numbers of CD4, CD8 and NKT cells between individuals and between strains","NS5 [2]; C57BL/6 and BALB/c, large variations in control groups",very little variation
same,NS5-specific NKT cells detected by PLZF staining,NS5 [3],found only in the group of mice which has been pre-sensitized with peptide of SEQ ID NO:1
ATR FASVYAW NRK (FASVYAWNRK) [peptide of SEQ ID NO:3],number of CD8+ T cells relative to CD4+ T cells,"SARS-CoV-2 S protein [4]; 2 months after last injection, reverse in control group",outweigh the number of CD4+ T cells
same,number of CD8+ T cells relative to CD4+ T cells,SARS-CoV-2 S protein [4]; 6 months after last injection,same trend towards preferential CD8+ T cells
same,numbers of CD3+ lymphocytes towards protein S,SARS-CoV-2 S protein [4]; vs control mice,significantly higher numbers
same,specific anti-S protein antibody titers,SARS-CoV-2 S protein [5]; 2 months after end of immunization,significantly higher titers
same,isotypic distribution of anti-S protein antibodies,"SARS-CoV-2 S protein [5]; 2 months, vs control group",dramatic shift from IgG1 in the control group towards IgG2a
same,specific anti-S protein antibody titers,SARS-CoV-2 S protein [5]; 6 months after end of immunization,significantly higher titers
same,isotypic distribution of anti-S protein antibodies,SARS-CoV-2 S protein [5]; after 6 months,shift was maintained
"CC(C)C[C@H](NC(=O)[C@H](Cc1c[nH]cn1)NC(=O)[C@H](CC(C)C)NC(=O)[C@H](Cc1ccccc1)NC(=O)[C@H](CC(C)C)NC(=O)[C@@H](N)C(C)C)C(=O)N[C@@H](Cc1ccc(O)cc1)C(=O)N[C@@H](CC(C)C)C(=O)N[C@@H](Cc1ccccc1)C(=O)N[C@@H](CC(C)C)C(=O)N[C@H](C(=O)O)[C@@H](C)O [peptide of SEQ ID NO:5, VL-FLHLYLF-LT] (H-VLFLHLYLFLT-OH)","cells sharing a cytotoxicity potential (CD8+ T cells, NK cells, NKT cells)",HSV,significant expansion
GL-FGAIAGF-IE [peptide of SEQ ID NO:4],"type of immune response towards hemagglutinin (CD8+, NK and NKT cells)",[6],dominated by a Th1-like and cytotoxic response
same,isotype distribution of anti-hemagglutinin antibodies in serum,[7],high concentrations of IgG2a
same,ratio of IFN-gamma over IL-4 production,[8],high ratio of IFN-gamma over IL-4
